Target: FLAGELLIN-SENSING 2 (FLS2) (Arabidopsis thaliana, UniProt Q9FL28)
Assay: microscale thermophoresis
Format: binding

FLAGELLIN-SENSING 2 (FLS2), sequence (Q9FL28 24-804): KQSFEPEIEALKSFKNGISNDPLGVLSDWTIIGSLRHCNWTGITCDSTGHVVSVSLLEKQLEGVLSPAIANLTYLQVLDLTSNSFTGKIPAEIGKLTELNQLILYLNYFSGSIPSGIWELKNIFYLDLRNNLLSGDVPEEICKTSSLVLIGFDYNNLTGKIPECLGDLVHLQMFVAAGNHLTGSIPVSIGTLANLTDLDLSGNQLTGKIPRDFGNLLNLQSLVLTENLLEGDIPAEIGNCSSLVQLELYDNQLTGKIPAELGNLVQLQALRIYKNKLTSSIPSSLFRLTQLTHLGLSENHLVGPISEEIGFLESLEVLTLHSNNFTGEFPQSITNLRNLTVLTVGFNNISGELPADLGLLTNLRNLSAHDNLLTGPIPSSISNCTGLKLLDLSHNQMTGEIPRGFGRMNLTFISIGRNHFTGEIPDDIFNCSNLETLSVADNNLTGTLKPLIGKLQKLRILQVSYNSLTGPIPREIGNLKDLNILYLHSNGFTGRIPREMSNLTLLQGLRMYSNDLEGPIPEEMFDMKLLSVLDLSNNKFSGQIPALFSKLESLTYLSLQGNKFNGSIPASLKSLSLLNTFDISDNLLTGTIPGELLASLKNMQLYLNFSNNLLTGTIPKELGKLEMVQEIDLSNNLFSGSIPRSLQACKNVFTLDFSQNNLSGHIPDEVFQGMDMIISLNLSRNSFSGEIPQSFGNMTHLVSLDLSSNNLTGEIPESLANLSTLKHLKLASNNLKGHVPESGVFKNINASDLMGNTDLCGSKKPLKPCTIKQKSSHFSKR

In the case of `C=C(C)COc1ccc2c(C)c(CC(=O)N3CCN(CC(=O)NCCN(C)C)CC3)c(=O)oc2c1C` [FIC04], the Kd is reported as 93.9 ± 19.5 µM.
